Several values for one entry are separate records, joined by “and”; a condition that tells them apart may be missing. Equal entries are not always repeated.
What was measured:
[1] = tested on: isolated rat brain synaptosomes; experiment: Neurotoxicity: synaptosomal viability (MTT), substances applied alone; type: cell-based; conditions: 50 µM applied alone, 1 h, compared to control (untreated synaptosomes)
Protocol: (§1) Synaptosomes and mitochondria were obtained by multiple, subcellular fractionation using a Percoll gradient. The necessary brain homogenate was prepared and centrifuged at 1000× g for 5 min at +4 °C. After centrifugation, the supernatants were collected and centrifuged again at 1000× g for 5 min at +4 °C. The supernatants from the two centrifugations were mixed and distributed into four tubes. The tubes were centrifuged at 10,000× g for 20 min at +4 °C three times. The last two centrifugations were for purification of synaptosomes and mitochondria.
(§2) The isolation of the required fractions was based on the formation of a colloidal solution of silicon (Percoll), as per the procedure, including: 1. Preparation of a 90% stock solution of Percoll, followed by preparation of two Percoll solutions of different percentages: 16% and 10%. An amount of 4 mL of each of the prepared 16% and 10% Percoll solutions was placed in six test tubes. A 90% Percoll (7.5% Percoll) was added to the precipitate obtained from the previous step from the last centrifugation. The obtained mixtures in all 12 tubes were centrifuged for 20 min at 15,000× g +4 °C. After centrifugation, three layers are formed in the tubes. The bottom layer contains mitochondria, the top layer contains lipids, and the middle layer—at the 16% to 10% Percoll limit—contains synaptosomes. The respective layer from each tube is removed through a glass pasteurizer and collected into one. Buffer B + glucose is added to it. The mixture was centrifuged at 10,000× g for 20 min at +4 °C. Thus, the isolation buffer is exchanged with the incubation buffer. After centrifugation, the pellet where the synaptosomes are mixed and made up with buffer B + glucose.
(§3) Synaptosomes and mitochondria were incubated with the test substances at a concentration of 50 µM for 1 h.
After 1 h incubation with the substances and toxic agent, synaptosomes were centrifuged on a microcentrifuge for 1 min at 15,000× g. The pellet was mixed gently with buffer B + glucose, and the supernatant where 6-OHDA was discarded to prevent oxidation of MTT. Centrifuge again at 15,000× g for 1 min. After the second wash, buffer B + glucose was added to the pellet. To the ‘washed’ synaptosomes, 60 µL of MTT solution is added. The plates were incubated with the MTT solution at 37 °C for 10 min. After incubation, the samples were centrifuged at 15,000× g for 2 min. The excess liquid was removed, and a DMSO solution was used to dissolve the formed formazan crystals. After dissolution, the amount of formazan is measured spectrophotometrically at λ = 580 nm.

[2] = tested on: isolated rat brain synaptosomes; experiment: Neurotoxicity: reduced glutathione (GSH) level in synaptosomes, substances applied alone; type: cell-based; conditions: 50 µM applied alone, 1 h, compared to control
Protocol: as §1, §2, §3
(§4) After precipitation of the proteins with trichloroacetic acid, the thiol groups in the supernatant were determined by DTNB, which produced a yellow-colored compound that absorbs light at λ = 412 nm. After incubation, synaptosomes were centrifuged at 4000× g for 3 min. The supernatant was removed and the pellet taken for GSH determination. It was treated with 5% trichloroacetic acid, then left for 10 min on ice. It was centrifuged at 8000× g for 10 min (2 °C). The supernatant is taken for GSH determination and frozen at −20 °C. Immediately before measurement, the samples are neutralized with 5N NaOH [58].

[3] = tested on: isolated rat brain mitochondria; experiment: Neurotoxicity: MDA production in brain mitochondria, substances applied alone; type: cell-based; conditions: 50 µM applied alone, compared to control
Protocol: as §1, §2, §3
To the mitochondria was added 0.3 mL of 0.2% thiobarbituric acid and 0.25 mL of sulfuric acid (0.05 M), and the mixture was boiled for 30 min. After boiling, the tubes were placed on ice, and 0.4 mL of n-butanol was added to each, then centrifuged at 3500× g for 10 min. The amount of MDA was determined spectrophotometrically at 532 nm.

[4] = tested on: isolated rat brain mitochondria; experiment: Neurotoxicity: GSH level in brain mitochondria, substances applied alone; type: cell-based; conditions: 50 µM applied alone, compared to control
Protocol: as §1, §2
[…]. After centrifugation of the homogenate at 6000× g, a 0.04% solution of DTNB was added to the supernatant to give a yellow color, the determination being spectrophotometric at 412 nm.

[5] = tested on: isolated rat brain microsomes; experiment: Neurotoxicity: MDA production in brain microsomes, substances applied alone; type: cell-based; conditions: 50 µM applied alone, compared to control
Protocol: (§5) The brain was homogenized in 9 volume parts of 0.1 M Tris buffer containing: 0.1 mM dithiothreitol, 0.1 mM phenylmethylsulfonyl fluoride, 0.2 mM EDTA, 1.15% KCl, and 20% (v/v) glycerol (pH 7.4). The resulting homogenate was centrifuged twice at 17,000× g for 30 min. The supernatants from the two centrifugations were pooled and centrifuged twice at 100,000× g for 1 h. The pellet was frozen in 0.1 M Tris buffer.
(§6) After completion of incubation of the microsomes with the substances and toxic agent, the reaction was stopped by the addition of 0.5 mL of 20% trichloroacetic acid, followed by 0.5 mL of 0.67% thiobarbituric acid. The ongoing reactions are associated with the formation of a colored complex between the malondialdehyde formed and thiobarbituric acid. The determination of MDA was spectrophotometric at 535 nm. A molar extinction coefficient of […] was used for the calculation.

[6] = tested on: isolated rat brain synaptosomes; experiment: 6-OHDA-induced neurotoxicity model: GSH level; type: cell-based; conditions: 50 µM in combination with 6-OHDA (150 µM), compared to the toxic agent
Protocol: as §1, §2, §3
Synaptosomes were incubated with 6-OHDA (150 μM) for 1 h.
as §4

[7] = tested on: isolated rat brain microsomes; experiment: Fe2+/AA-induced non-enzyme lipid peroxidation model: MDA production; type: cell-based; conditions: 50 µM in combination with Fe2+/AA, compared to the toxic agent
Protocol: as §5
Non-enzyme-induced lipid peroxidation was induced with 20 μM ferrous sulfate solution and 0.5 mM ascorbic acid solution [62].
as §6

[8] = molecular target: T1, human recombinant MAOA enzyme (hMAOA) (Homo sapiens, UniProt P21397); experiment: Human recombinant MAOA enzyme activity (fluorometric, Amplex Red); type: biochemical; conditions: read-out: IC50 (EC50), (µM ± SD) hMAOA
T1 sequence (P21397 1-527): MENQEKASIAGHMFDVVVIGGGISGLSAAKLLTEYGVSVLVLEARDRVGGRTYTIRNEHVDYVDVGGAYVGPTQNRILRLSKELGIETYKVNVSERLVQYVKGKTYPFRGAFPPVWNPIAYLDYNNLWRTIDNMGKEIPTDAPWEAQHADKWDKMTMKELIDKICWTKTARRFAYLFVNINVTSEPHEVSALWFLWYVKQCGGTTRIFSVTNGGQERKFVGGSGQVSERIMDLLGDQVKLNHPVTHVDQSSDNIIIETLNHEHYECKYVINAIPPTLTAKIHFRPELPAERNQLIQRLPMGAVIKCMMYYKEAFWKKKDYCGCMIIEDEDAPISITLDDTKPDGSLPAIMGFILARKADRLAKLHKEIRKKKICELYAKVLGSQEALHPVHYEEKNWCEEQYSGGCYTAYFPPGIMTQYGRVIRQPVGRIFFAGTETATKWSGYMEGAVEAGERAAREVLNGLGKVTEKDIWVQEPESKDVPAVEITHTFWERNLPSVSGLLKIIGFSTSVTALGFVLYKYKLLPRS
Protocol: (§7) The activity of recombinant human MAOA/B was determined fluorometrically. Tyramine hydrochloride was used as substrate. The activity is determined by detection of H2O2 production. This production is in turn reported by binding to horseradish peroxidase using N-acetyl-3,7-dihydroxyphenoxazine (AmplexRed, Thermo Fisher Scientific, Waltham, MA, USA) [63].
(§8) Working solutions of the test substances, reagents, and human recombinant MAOA/B enzyme (hMAOA/B) were prepared in reaction buffer according to the manufacturer’s instructions. A pure working solution of MAOA/B in reaction buffer, a working solution of MAOA/B containing hydrogen peroxide, and a pure reaction buffer were used as controls. Substances were applied at a final concentration of 1 µM. The substances together with hMAOB were placed in a 96-well plate (8 samples for each substance), and then the plate was placed in an incubator for 30 min (in the dark, at 37 °C). Fluorimetric readings were performed in a Synergy 2 Microplate Reader at two wavelengths (570 nm and 690 nm).

[9] = molecular target: T2, human recombinant MAOB enzyme (hMAOB) (Homo sapiens, UniProt P27338); experiment: Human recombinant MAOB enzyme activity (fluorometric, Amplex Red); type: biochemical; conditions: for inhibition at 1 µM: compared to control (pure hMAOB); for IC50: read-out: IC50 (EC50), (µM ± SD) hMAOB;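 on all read-outs here: tyramine as substrate, H2O2 formation detected by horseradish peroxidase coupled Amplex Red fluorescence read at 570 and 690 nm, compounds incubated with enzyme 30 min at 37 °C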
T2 sequence (P27338 1-520): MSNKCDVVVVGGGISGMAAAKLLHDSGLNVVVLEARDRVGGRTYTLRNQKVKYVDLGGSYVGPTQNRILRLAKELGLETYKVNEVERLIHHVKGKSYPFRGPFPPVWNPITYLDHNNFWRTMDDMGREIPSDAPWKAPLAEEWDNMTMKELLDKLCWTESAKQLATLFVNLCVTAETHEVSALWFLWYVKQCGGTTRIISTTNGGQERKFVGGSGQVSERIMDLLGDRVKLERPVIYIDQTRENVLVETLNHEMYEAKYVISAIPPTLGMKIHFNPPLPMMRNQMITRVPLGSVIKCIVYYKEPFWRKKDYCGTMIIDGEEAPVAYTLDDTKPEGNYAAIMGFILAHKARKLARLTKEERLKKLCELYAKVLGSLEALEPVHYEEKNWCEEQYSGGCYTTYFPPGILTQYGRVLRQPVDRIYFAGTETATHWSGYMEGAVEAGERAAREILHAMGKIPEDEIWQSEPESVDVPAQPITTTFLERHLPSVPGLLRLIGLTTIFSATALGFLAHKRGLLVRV
Protocol: as §7, §8

[10] = pH 7.4, 50 µM, 4 h, 25 °C; Pe calculated in 10^−6 cm/s, presented as −logPe
[11] = tested on: isolated rat brain mitochondria; experiment: t-BuOOH-induced oxidative stress model: GSH level; conditions: 50 µM in combination with t-BuOOH (75 µM), compared to the toxic agent
[12] = tested on: isolated rat brain mitochondria; experiment: t-BuOOH-induced oxidative stress model: MDA production; conditions: 50 µM in combination with t-BuOOH (75 µM), compared to the toxic agent

Structure (SMILES)	decrease of synaptosomal viability [1]	decrease of glutathione (GSH) level [2]	increase of MDA production [3]	decrease of GSH level [4]	increase of MDA production [5]	preservation of GSH level [6]	decrease of MDA production [7]	IC50 [8]	SI: hMAOB selectivity index = IC50(hMAOA)/IC50(hMAOB) [9]	inhibition at 1 µM [9]	IC50 [9]	PAMPA BBB −logPe [10]	preservation of GSH level [11]	reduction of MDA production [12]
CCOC(=O)c1cc(-c2ccc(Br)cc2)n(CC(=O)NN=Cc2ccc(Cl)cc2)c1C [7b]	25%	15%	43%	15%	40%	60%	46%	> 100 µM	>181	40%	0.551 ± 0.1 µM	4.416 ± 0.022 and 4.416	70%	28%
CCOC(=O)c1cc(-c2ccc(Br)cc2)n(CC(=O)NN=Cc2ccc(N(C)C)cc2)c1C [7a]	30%	25%	63%	20%	54%	50%	34%	> 100 µM	>123	20%	0.812 ± 0.1 µM	4.849 ± 0.043	40%	14%
CCOC(=O)c1cc(-c2ccc(Br)cc2)n(CCC(=O)NN=Cc2ccc(N(C)C)cc2)c1C [8a]	35%	25%	60%	20%	55%	40%	35%	> 100 µM	>122	20%	0.821 ± 0.1 µM	5.268 and 5.268 ± 0.014	60%	18%
CCOC(=O)c1cc(-c2ccc(Br)cc2)n(CC(=O)NN=Cc2cc(OC)c(O)c(OC)c2)c1C [7d]	20%	15%	34%	15%	27%	70%	52%	> 100 µM	>204	45%	0.491 ± 0.09 µM	4.819 ± 0.004 and 4.819	80%	35%
CCOC(=O)c1cc(-c2ccc(Br)cc2)n(CCC(=O)NN=Cc2ccc([N+](=O)[O-])cc2)c1C [8c]	30%	25%	66%	25%	60%	50%	27%	> 100 µM	>123	20%	0.814 ± 0.2 µM	4.631 ± 0.047	40%	5%
CC(C)NCC(O)COc1cccc2ccccc12.Cl (centres unmarked) [Propranolol HCl, reference compound]	–	–	–	–	–	–	–	–	–	–	–	4.389 ± 0.014	–	–

Reference: paper PMC11433870, “Neurotoxicity, Neuroprotection, In Vitro MAOA/MAOB Inhibitory Activity Assessment, Molecular Docking, and Permeability Assay Studies of Newly Synthesized Hydrazones Containing a Pyrrole Ring” (Molecules, 2024)
